The test system of one data set is SARS-CoV-2. The experiment in a line: microbe, parasite or virus in culture. The class given is cell-based. Particulars: Severe acute respiratory syndrome coronavirus 2, 48 h.
The nature of data set [1]: MT4 cytotoxicity analysis (CellTiter-Glo). The class given is cell-based. Particulars: human, MT4 CC50 (nM). Summed up: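 MT-4 cells were exposed in quadruplicate to 3-fold serial compound dilutions (DMSO stocks 2.5 uM to 10 mM) for five days at 37 °C. Viability was read by CellTiter-Glo luminescence.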
Background: In ATP-based viability assays light output follows the ATP content of the culture.

The test system of data set [2] is RSV-Fluc (Recombinant Respiratory Syncytial virus strain A2 containing the firefly luciferase reporter). The experiment in a line: microbe, parasite or virus in culture. The class given is cell-based. The settings on record: human respiratory syncytial virus, NHBE, 72 h, read-out: RSV-Fluc EC50 (nM, NHBE).
Details of data set [3]: species or system Sprague-Dawley (SD) rats. The settings on record: male, Sprague-Dawley, rat, in vivo, po, 10 mg/kg. As for the experimental part: Example 80: Rat Lung Phosphate (Monophosphate, Diphosphate and Triphosphate) Data with Exemplary Compounds
Measurement of GS-441524 (compound A below) and its phosphorylated metabolites (compounds B, C, and D below) in lung tissues was performed according to the following protocol.
The concentrations of GS-441524 (A) and its phosphorylated metabolites (B, C, and D) were determined in Sprague-Dawley (SD) rats following oral gavage administration of the test compounds. The in-life phase of studies was conducted at Covance Laboratories (Madison, WI). Animals were housed and handled in accordance with the Guide for the Care and Use of Laboratory Animals, Institute of Laboratory Animal Resources. The protocols were reviewed and approved by the Institutional Animal Care and Use Committees (IACUC). Male SD rats weighing approximately 0.3 kg were used for in-life portion of the studies. The animals were fasted overnight prior to the test compound administration and up to 4 hours post-dose. The animals were administered with the test compound at 5, 8, 10 or 20 mg/kg via oral gavage (3 rats per group). The aqueous formulation contains ethanol, dimethyl sulfoxide, Kolliphor HS-15, Labrasol, and propylene glycol. Approximately 0.5 grams of lung tissue samples were collected from each animal and analyzed by LC/MS/MS for determination of the concentrations of GS-441524 and its phosphorylated metabolites. For LC-MS/MS analysis, tissue samples were homogenized and extracted with 4-fold volume of 70% methanol containing 0.1% potassium hydroxide, 67 mM ethylenediamine tetraacetic acid, and internal standard. Approximately 200 μL aliquot of the homogenate was filtered using a 96-well filter plate (0.2 μm polypropylene; Agilent Captiva, Santa Clara, CA). The filtrate was evaporated to dryness and reconstituted with equal volume of 1 mM ammonium phosphate buffer (pH 7). The samples were then analyzed on a Sciex 6500+ LC-MS/MS instrument (Redwood City, CA). Analytes were eluted on a […] 50×2.0 mm Phenomenex Luna C18 HST column (Torrance, CA) using mobile phases containing 3 mM ammonium formate and 10 mM dimethylhexylamine and a linear gradient from 9% to 50% acetonitrile at a flow rate of 360 μL/min. Data acquisition and processing were accomplished using Sciex Analyst® Software. Total summed levels of GS-441524 phosphorylate metabolites (B+C+D) in lung tissues were generated from the sum of GS-441524 mono-, di- and tri-phosphate (B, C, and D respectively).

A further data set is described as follows: in vitro. The class given is cell-based. The settings on record: human. As for the experimental part: Example 78: A549 Cytotoxicity Analysis
The cytotoxicity of compounds is determined in A549 cells in the following manner. Compounds (40 nL) are spotted onto 384-well Grenier plates prior to seeding 5000 A549 cells/well in a volume of 40 μL culture medium. The plates are incubated at 37° C. for 48 hours with 5% CO2. On day 2, 40 μL of CellTiter-Glo (Promega) is added and mixed 5 times. Plates are read for luminescence on an Envision (PerkinElmer) and the CC50 (compound concentration for reducing 50% of luminescence signal as a measure of cell viability) are calculated using a nonlinear regression model (four parameters). Two experiments are performed with technical duplicates.

Structures are written as SMILES.

Usually EC50 stands for the concentration needed to bring the measured effect to its halfway point. One may read the CC50 as the concentration giving 50% cytotoxicity. Read a low CC50 as harm at low concentration. With `CCCCCCCCCCCCCCCCCCOC[C@H](COP(=O)(O)OC[C@H]1O[C@@](C#N)(c2ccc3c(N)ncnn23)[C@H](O)[C@@H]1O)N(C)Cc1ccc(F)c(Cl)c1` [Example 3, ((2R,3S,4R,5R)-5-(4-aminopyrrolo[2,1-f][1,2,4]triazin-7-yl)-5-cyano-3,4-dihydroxytetrahydrofuran-2-yl)methyl ((R)-2-((3-chloro-4-fluorobenzyl)(methyl)amino)-3-(octadecyloxy)propyl) hydrogen phosphate], the EC50 was determined as 2300 nM with SARS-CoV-2 and 350 nM in data set [2]. The compound also registered a CC50 at 5 days in data set [1] of 5700 nM. For the same compound, in data set [3], the “Total Lung Phosphate Level (monophosphate + diphosphate + triphosphate, nmol/g)” value (from here on “Total Lung Phosphate Level”) turned out to be 0.6 nmol/g.

As for `CCCCCCCCCCCCCCCCCCOC[C@H](COP(=O)(O)OC[C@H]1O[C@@](C#N)(c2ccc3c(N)ncnn23)[C@H](O)[C@@H]1O)Oc1cc(OC)c(C#N)c(OC)c1` [Example 34, ((2R,3S,4R,5R)-5-(4-aminopyrrolo[2,1-f][1,2,4]triazin-7-yl)-5-cyano-3,4-dihydroxytetrahydrofuran-2-yl)methyl ((R)-2-(4-cyano-3,5-dimethoxyphenoxy)-3-(octadecyloxy)propyl) hydrogen phosphate], the EC50 was 43 nM with SARS-CoV-2 and 11 nM in data set [2]. In “in vitro”, it took 10000 nM to reach half-maximal cytotoxicity (CC50 at 48 h). In data set [1], the CC50 at 5 days was 460 nM. In data set [3], the “Total Lung Phosphate Level” value worked out at 2.4 nmol/g.

With `CCCCCCCCCCCCCCCCCCC[C@H](COP(=O)(O)OC[C@H]1O[C@@](C#N)(c2ccc3c(N)ncnn23)[C@H](O)[C@@H]1O)OCc1cc(F)cc(C#N)c1` [Example 35, ((2R,3S,4R,5R)-5-(4-aminopyrrolo[2,1-f][1,2,4]triazin-7-yl)-5-cyano-3,4-dihydroxytetrahydrofuran-2-yl)methyl ((R)-2-((3-cyano-5-fluorobenzyl)oxy)henicosyl) hydrogen phosphate], the EC50 in the data set with SARS-CoV-2 is 570 nM; in data set [2], 95 nM. The compound also returned a CC50 at 48 h in “in vitro” of 16000 nM. In data set [1], the midpoint of cytotoxicity, the CC50 at 5 days, lay at 830 nM. Besides, the “Total Lung Phosphate Level” value in data set [3] was 2.7 nmol/g.

The compound `CCCCCCCCCCCCCCCCCCOC[C@H](COP(=O)(O)OC[C@H]1O[C@@](C#N)(c2ccc3c(N)ncnn23)[C@H](O)[C@@H]1O)OCc1cc(OC)c(C#N)c(OC)c1` [Example 55, ((2R,3S,4R,5R)-5-(4-aminopyrrolo[2,1-f][1,2,4]triazin-7-yl)-5-cyano-3,4-dihydroxytetrahydrofuran-2-yl)methyl ((R)-2-((4-cyano-3,5-dimethoxybenzyl)oxy)-3-(octadecyloxy)propyl) hydrogen phosphate] gave a CC50 at 5 days in data set [1] of 270 nM. For the same compound, the EC50 in data set [2] stood at 24 nM. Also, in data set [3], the “Total Lung Phosphate Level” value is 2.1 nmol/g.

As to `CCCCCCCCCCCCCCCCCCOC[C@H](COP(=O)(O)OC[C@H]1O[C@@](C#N)(c2ccc3c(N)ncnn23)[C@H](O)[C@@H]1O)OCc1ccccc1` [Reference Compound, reference compound], the “Total Lung Phosphate Level” value in data set [3] amounted to 0.5 nmol/g.

The record behind these values is patent publication US12208110B2 (priority 2020, dated 2025).
